Reference: patent publication US20220380801A1, “TRIPARTITE SYSTEMS FOR PROTEIN DIMERIZATION AND METHODS OF USE” (priority 2019, published 2022)

System: hESC line Sa121
Assay: PRSIM-based kill switch activity in ESC cells (confluency)
Type: cell-based, human
Protocol: The hESC line Sa121 (TakaraBio Europe) was also transduced with the lentiviral particles encoding the PRSIM-based kill switch fusion protein described above (SEQ ID 223). Cells (passage 19) were plated at 3.5×10^5 cells/cm^2 in the DEF-CS culture system, and the cells were transduced 30 h later. 24 h after transduction, puromycin selection was initiated and the antibiotic selection was maintained until a stable cell pool was achieved.
To test the induction of the kill switch in Sa121 ES cells, the cells were plated at 3.5×10^5/cm^2 two days before inducing kill switch activity by treating with simeprevir at concentrations from 10 nm to 1 uM. The cells were imaged using the Incucyte S3 (EssenBioscience) at intervals ranging from 10-20 min; kill switch efficiency was quantified by image analysis of confluency.

Compound: COc1ccc2c(O[C@@H]3C[C@H]4C(=O)N[C@]5(C(=O)NS(=O)(=O)C6CC6)C[C@H]5/C=C\CCCCN(C)C(=O)[C@@H]4C3)cc(-c3nc(C(C)C)cs3)nc2c1C [simeprevir]
- cell killing (10 nM simeprevir, 4 hours timeframe): maximal cell killing was not reached
- cell killing (100 nM simeprevir, within 4 hours): ~90%
- onset of cell killing (1 μM simeprevir): ~15 min
- cells eliminated (cell confluency) (1 μM simeprevir, within 4 hours, kill switch-transduced Sa121): up to 95%
- response to simeprevir (wt (non-transduced) Sa121 cells): did not respond to treatment with simeprevir
